Measurements taken from patent US12409192B2, “Traditional Chinese medicine composition and use thereof” (JIANGSU KANION PHARMACEUTICAL CO., LTD, priority 2021, dated 2025).

Test system: fever induced by dry yeast in rats
Assay: Dry yeast-induced fever in rats
Format: in vivo
Conditions: composition 3.34 g crude drugs/kg, aspirin 0.20 g/kg, X ± SD, n = 10
Experimental: Male SD rats, weighing 180-220 g were fed adaptively for 1 week, with the environmental temperature maintained at 20-25° C. The rectal temperature of the rats was measured once daily at 10:00 am for two consecutive days to acclimate them to this procedure. The average of the two temperature measurements was taken as the baseline temperature. Rats with a temperature range of 37.0-38.6° C. and a fluctuation <0.5° C. were selected for the experiment. Each rat was subcutaneously injected with 10 ml/kg of a 20% suspension of dry yeast to induce fever. (Preparation method: 120 g of dry yeast was weighed and placed in a mortar, gradually adding distilled water to grind into a uniform suspension, and then adjusted to a volume of 600 mL, prepare this solution fresh.) Six hours after injecting the yeast suspension, the body temperature of the rats was measured. One hundred and seventy rats with a temperature increase ranging from 1.0 to 2.2 degrees Celsius were selected and randomly divided into 17 groups based on their temperatures. […] Each group was orally gavaged with the corresponding solvent or drug, and rectal temperature was measured at 1 h, 2 h, 3 h, 4 h, and 5 h after administration to calculate the temperature difference from baseline.
Male SD rats, weighing 180-220 g were fed adaptively for 1 week, with the environmental temperature maintained at 20-25° C. The rectal temperature of the rats was measured once daily at 10:00 am for two consecutive days to acclimate them to this procedure. The average of the two temperature measurements was taken as the baseline temperature. Rats with a temperature range of 37.0-38.6° C. and a fluctuation <0.5° C. were selected for the experiment. Each rat was subcutaneously injected with 10 ml/kg of a 20% suspension of dry yeast to induce fever. (Preparation method: 120 g of dry yeast was weighed and placed in a mortar, gradually adding distilled water to grind into a uniform suspension, and then adjusted to a volume of 600 mL, prepare this solution fresh.) Six hours after injecting the yeast suspension, the body temperature of the rats was measured. Ninety rats with a temperature increase ranging from 1.0 to 2.2 degrees Celsius were selected and randomly divided into 9 groups based on their temperatures. These groups were as follows: (1) Model group: administered distilled water, (2) 7 batches of traditional Chinese medicine groups P-V: dosage of 3.34 g crude drugs/kg, (3) Positive control group: administered aspirin suspension, dosage of 0.20 g/kg. Each group was orally gavaged with the corresponding solvent or drug, and rectal temperature was measured at 1 h, 2 h, 3 h, 4 h, and 5 h after administration to calculate the temperature difference from baseline.

CC(=O)Oc1ccccc1C(=O)O [Aspirin, aspirin]
Temperature rise degrees after administration of medication (ΔT), 1 h (1 h after oral gavage): 0.40 ± 0.24 degrees
Temperature rise degrees after administration of medication (ΔT), 2 h (2 h after oral gavage): 0.34 ± 0.37 degrees
Temperature rise degrees after administration of medication (ΔT), 3 h (3 h after oral gavage): 0.27 ± 0.28 degrees
Temperature rise degrees after administration of medication (ΔT), 4 h (4 h after oral gavage): 0.22 ± 0.23 degrees
Temperature rise degrees after administration of medication (ΔT), 5 h (5 h after oral gavage): 0.22 ± 0.24 degrees
Degrees of temperature rise after administration of medication (ΔT), 1 h (verification study, 1 h after oral gavage): 0.42 ± 0.34 Degrees
Degrees of temperature rise after administration of medication (ΔT), 2 h (verification study, 2 h after oral gavage): 0.42 ± 0.31 Degrees
Degrees of temperature rise after administration of medication (ΔT), 3 h (verification study, 3 h after oral gavage): 0.34 ± 0.31 Degrees
Degrees of temperature rise after administration of medication (ΔT), 4 h (verification study, 4 h after oral gavage): 0.23 ± 0.30 Degrees
Degrees of temperature rise after administration of medication (ΔT), 5 h (verification study, 5 h after oral gavage): 0.17 ± 0.13 Degrees
